Results from patent publication US11241013B2, “Benzimidazole compounds as agricultural chemicals” (REDAG CROP PROTECTION LTD, priority 2017, dated 2022).

Legend:
Type in all cases: cell-based
[1] = test system: Pythium ultimum; assay: Amended agar assay; set-up: key to % control Pythium ultimum 2 ppm / % control Pythium ultimum 20 ppm: D: no control detected at this concentration; C: up to 50% control; B: from 50 to 99% control; A: a control of greater than 99%, i.e. no detectable colony growth; settings: amended PDA agar, % reduction in colony growth vs control plate, 18° C.; for inhibition of growth at 20 ppm / inhibition of growth at 2 ppm: Globisporangium ultimum
Experimental: Testing was carried out on potato dextrose agar (PDA) amended with each compound at a test concentration of typically 20 ppm or 2 ppm. Amended agar was poured into three replicate 9 cm petri dishes. Each replicate dish was inoculated in the centre with a 5 mm agar plug taken from the leading edge of a culture aged between 2 and 7 days old; the age of the culture was dependant on the growth rate of the pathogen being tested. The test pathogens were Pythium ultimum and Phytophthora cinnamomi. Plates were incubated at 18° C. and the diameter of each colony measured before growth on the fastest growing plate reached the plate edge. This varied between 2 and 7 days depending on the growth rate of test pathogens. The % reduction in colony growth compared to the control plate was calculated for each pathogen. The results are provided in Table 1, in which D represents no control detected at this concentration; C represents up to 50% control; B from 50 to 99% control; and A represents a control of greater than 99%, i.e. no detectable colony growth.
Alternatively, or in addition, the same assay was conducted at descending test concentrations with 5-fold dilutions typically down to 0.032 ppm though sometimes as low as 0.00026 ppm, and an EC50 (the concentration at which 50% control would be achieved) was determined. The results are provided in Table 1 in which G represents no control detected at 20 ppm, F represents an EC50 of ≥20 ppm and E represents an EC50 of less than 20 ppm.

[2] = test system: Phytophthora cactorum; assay: 96 well plate test; set-up: key: G: no control detected at 20 ppm; F: an EC50 of ≥20 ppm; an EC50 of less than 20 ppm; settings: 96 well plate assay, agar amended to 20, 2, 0.2 and 0.02 ppm, assessed after 2 to 3 days
Experimental: (§1) Compounds were screened in 96 well plates with 10 compounds per plate. Each compound was screened using agar amended to 20, 2, 0.2 and 0.02 ppm, with proline at 50 and 10 ppm and 0.2% DMSO used as controls. Each test concentration and standard was replicated twice on a plate. Compounds were screened against Phytophthora cactorum. The agar used in the test is a 1% potato dextrose agar. 1000 spores/mL agar were added to the appropriate agar. A ×10 stock solution in 2% DMSO was produced for each dose i.e. 200, 20, 2 and 0.2 ppm, and 10 μl of this added to the appropriate wells on the plate. An equivalent amount of 2% DMSO and proline stock at 500 and 100 ppm were added for the controls. To each well 90 μl of the appropriate agar spore suspension was added to give the required final well concentrations. Plates were incubated at room temperature (18° C.) and assessed after 2 to 3 days. The amount of pathogen growth in each well was compared to the DMSO controls and an EC50 concentration was calculated. The results are provided in Table 1 in which H represents no control detected at 20 ppm, G represents no control detected at 2 ppm (where the highest test concentration in the assay was 2 ppm), F represents an EC50 of ≥20 ppm, E represents an EC50 of less than 20 ppm.

[3] = test system: Phytophthora cactorum; assay: 96 well plate test; settings: 96 well plate assay, agar amended to 20, 2, 0.2 and 0.02 ppm, assessed after 2 to 3 days, read-out: EC50 Phytophthora spp. (Phytophthora cactorum)
Experimental: as §1

| SMILES | inhibition of growth at 2 ppm [1] | EC50 [3] | also measured |
| --- | --- | --- | --- |
| Cn1nnnc1-n1c(OCc2ncccn2)nc2ccccc21 [Example 2] | – | – | % control Pythium ultimum 20 ppm ([1]; 20 ppm): D; EC50 Phytophthora spp. (Phytophthora cactorum) [2]: H |
| Cn1nnnc1-n1c(OCc2cnccn2)nc2ccccc21 [Example 5] | – | – | inhibition of growth at 20 ppm ([1]; 20 ppm): < 50%; % control Pythium ultimum 2 ppm [1]: D; EC50 Phytophthora spp. (Phytophthora cactorum) [2]: H |
| Nc1cccc(COc2nc3ccccc3n2-c2ncncc2Cl)n1 [Example 9] | < 50% | – | EC50 Phytophthora spp. (Phytophthora cactorum) [2]: H |
| COCCCOc1ccnc(COc2nc3ccccc3n2-c2nnnn2C)c1C [Example 15] | < 50% | – | inhibition of growth at 20 ppm ([1]; 20 ppm): > 99%; EC50 Phytophthora spp. (Phytophthora cactorum) [2]: H |
| Cn1nnnc1-n1c(OCc2cccnc2)nc2ccccc21 [Example 18] | < 50% | – | EC50 Phytophthora spp. (Phytophthora cactorum) [2]: H |
| Cn1nnnc1-n1c(OCc2ccncc2)nc2ccccc21 [Example 19] | < 50% | – | EC50 Phytophthora spp. (Phytophthora cactorum) [2]: H |
| Cn1nnnc1-n1c(OCc2cccnn2)nc2ccccc21 [Example 21] | – | – | inhibition of growth at 20 ppm ([1]; 20 ppm): 50 to 99%; % control Pythium ultimum 2 ppm [1]: D; EC50 Phytophthora spp. (Phytophthora cactorum) [2]: H |
| Cn1nnnc1-n1c(OCc2cccc(CO)n2)nc2c(Cl)cccc21 [Example 71] | – | ≥ 20 µg/mL | % control Pythium ultimum 2 ppm [1]: D |
| Cn1nnnc1-n1c(OCc2cccc(NCCc3ccccc3)n2)nc2c(Cl)cccc21 [Example 73] | > 99% | < 20 µg/mL | – |
| Cn1nnnc1-n1c(OCc2cccc(NCCOc3ccccc3)n2)nc2c(Cl)cccc21 [Example 74] | > 99% | < 20 µg/mL | – |
| Cn1nnnc1-n1c(OCc2cc(N3CCOCC3)ccn2)nc2c(Cl)cccc21 [Example 75] | 50 to 99% | ≥ 20 µg/mL | – |
| CCOc1ccnc(COc2nc3ccccc3n2-c2nnnn2C)c1 [Example 76] | > 99% | ≥ 20 µg/mL | – |
| CCCOc1ccnc(COc2nc3ccccc3n2-c2nnnn2C)c1 [Example 77] | > 99% | < 20 µg/mL | – |
| COc1cc(F)cc2c1nc(OCc1ccccn1)n2-c1nnnn1C [Example 78] | 50 to 99% | < 20 µg/mL | – |
| Cn1nnnc1-n1c(OCc2cccc(NCC3CCCC3)n2)nc2ccccc21 [Example 80] | > 99% | < 20 µg/mL | – |
| Cn1nnnc1-n1c(OCc2cccc(NC3CCCC3)n2)nc2ccccc21 [Example 81] | > 99% | < 20 µg/mL | – |
| CCC(C)Nc1cccc(COc2nc3ccccc3n2-c2nnnn2C)n1 (stereo not drawn) [Example 82] | > 99% | < 20 µg/mL | – |
| Cn1nnnc1-n1c(OCc2cccc(NCCC(F)(F)F)n2)nc2ccccc21 [Example 83] | > 99% | < 20 µg/mL | – |
| Cn1nnnc1-n1c(OCc2cccc(NCc3ccc(Cl)cc3)n2)nc2ccccc21 [Example 84] | > 99% | < 20 µg/mL | – |
| Cn1nnnc1-n1c(OCc2cccc(NCc3cccc(Cl)c3)n2)nc2ccccc21 [Example 85] | > 99% | < 20 µg/mL | – |
| Cn1nnnc1-n1c(OCc2cccc(NCc3ccc(F)cc3)n2)nc2ccccc21 [Example 86] | > 99% | < 20 µg/mL | – |

| SMILES | inhibition of growth at 2 ppm [1] | EC50 [3] | also measured |
| --- | --- | --- | --- |
| Cn1nnnc1-n1c(OCc2cccc(NCC3CC3)n2)nc2c(Cl)cccc21 [Example 87] | > 99% | < 20 µg/mL | – |
| CCCNc1cccc(COc2nc3c(Cl)cccc3n2-c2nnnn2C)n1 [Example 88] | > 99% | < 20 µg/mL | – |
| Cn1nnnc1-n1c(OCc2cccc(NCc3ccccc3)n2)nc2c(Cl)cccc21 [Example 89] | > 99% | < 20 µg/mL | – |
| CC(C)CCNc1cccc(COc2nc3c(Cl)cccc3n2-c2nnnn2C)n1 [Example 90] | > 99% | < 20 µg/mL | – |
| Cn1nnnc1-n1c(OCc2cccc(NCC3CC3)n2)nc2c(F)cccc21 [Example 91] | > 99% | < 20 µg/mL | – |
| Cn1nnnc1-n1c(OCc2cccc(NCc3ccccc3Cl)n2)nc2ccccc21 [Example 92] | > 99% | < 20 µg/mL | – |
| Cn1nnnc1-n1c(OCc2cccc(NCc3cccc(C#N)c3)n2)nc2ccccc21 [Example 93] | > 99% | < 20 µg/mL | – |
| COc1cccc(CNc2cccc(COc3nc4ccccc4n3-c3nnnn3C)n2)c1 [Example 94] | > 99% | < 20 µg/mL | – |
| Cc1cccc(CNc2cccc(COc3nc4ccccc4n3-c3nnnn3C)n2)c1 [Example 95] | > 99% | < 20 µg/mL | – |
| Cn1nnnc1-n1c(OCc2cccc(NCc3cccc(OC(F)(F)F)c3)n2)nc2ccccc21 [Example 96] | > 99% | < 20 µg/mL | – |
| Cn1nnnc1-n1c(OCc2cccc(NCc3cccc(C(F)(F)F)c3)n2)nc2ccccc21 [Example 97] | > 99% | < 20 µg/mL | – |
| CCCCNc1cccc(COc2nc3c(Cl)cccc3n2-c2nnnn2C)n1 [Example 98] | > 99% | < 20 µg/mL | – |
| CCCNc1cccc(COc2nc3c(Br)cccc3n2-c2nnnn2C)n1 [Example 99] | > 99% | < 20 µg/mL | – |
| Cn1nnnc1-n1c(OCc2cccc(NCC3CC3)n2)nc2c(Br)cccc21 [Example 100] | > 99% | < 20 µg/mL | – |
| Cc1cccc(CNc2cccc(COc3nc4c(Cl)cccc4n3-c3nnnn3C)n2)c1 [Example 101] | 50 to 99% | < 20 µg/mL | – |
| Cc1cccc(CNc2cccc(COc3nc4c(Br)cccc4n3-c3nnnn3C)n2)c1 [Example 102] | 50 to 99% | < 20 µg/mL | – |
| CC(C)Nc1cccc(COc2nc3c(Cl)cccc3n2-c2nnnn2C)n1 [Example 103] | > 99% | < 20 µg/mL | – |
| Cn1nnnc1-n1c(OCc2nc3ccccc3s2)nc2c(Br)cccc21 [Example 104] | > 99% | < 20 µg/mL | – |
| Cn1nnnc1-n1c(OCc2nc3ccccc3n2C)nc2c(Br)cccc21 [Example 105] | > 99% | < 20 µg/mL | – |
| Cn1nnnc1-n1c(OCc2cccc(N)n2)nc2c(Br)cccc21 [Example 106] | 50 to 99% | < 20 µg/mL | – |
| Cn1nnnc1-n1c(OCc2cc(N)ccn2)nc2ccccc21 [Example 108, 2-(((1-(1-Methyl-1H-tetrazol-5-yl)-1H-benzo[d]imidazol-2-yl)oxy)methyl)pyridin-4-amine] | – | ≥ 20 µg/mL | % control Pythium ultimum 2 ppm [1]: D |
